Experimental data taken from BindingDB's records for doi:10.1016/S0960-894X(00)80246-2 (1991).

Assay: Binding potency against SP receptor in bovine caudate using [3H]- as radioligand

SMILES | IC50
c1ccc(CN[C@H]2C3CCN(CC3)[C@H]2C(c2ccccc2)c2ccccc2)cc1 | 110 nM
Clc1ccccc1CN[C@H]1C2CCN(CC2)[C@H]1C(c1ccccc1)c1ccccc1 | 56 nM
